The numbers were not newly measured in patent US11298325B2, “Pharmaceutical compositions of pimobendan” (Boehringer Ingelheim Vetmedica GmbH, priority 2013, dated 2022), which cites them from elsewhere.

Structures are written as SMILES.

The conditions of data set [1]: low solubility and low permeability.
For data set [2] the following is noted: pH 5.

For `COc1ccc(-c2nc3ccc(C4=NNC(=O)CC4C)cc3[nH]2)cc1` (centres unmarked) [pimobendan], the “Class in the Biopharmaceutics Classification Systems” value in data set [1] is given as “Class IV”. Also, the Solubility in water result in data set [2] is recorded as “about 1 mg/liter”.
